The source made the active and inactive calls.
How the values were obtained:
[1] = target: T1, Rac GTPase-activating protein 1 (Homo sapiens, UniProt Q9H0H5); assay: blockers of MgcRacGAP-driven Rac1 GTP hydrolysis – biochemical, ADP Hunter fluorescence, primary and confirmatory, confirmation (AID 624330); format: functional
T1 sequence (Q9H0H5 whole entry): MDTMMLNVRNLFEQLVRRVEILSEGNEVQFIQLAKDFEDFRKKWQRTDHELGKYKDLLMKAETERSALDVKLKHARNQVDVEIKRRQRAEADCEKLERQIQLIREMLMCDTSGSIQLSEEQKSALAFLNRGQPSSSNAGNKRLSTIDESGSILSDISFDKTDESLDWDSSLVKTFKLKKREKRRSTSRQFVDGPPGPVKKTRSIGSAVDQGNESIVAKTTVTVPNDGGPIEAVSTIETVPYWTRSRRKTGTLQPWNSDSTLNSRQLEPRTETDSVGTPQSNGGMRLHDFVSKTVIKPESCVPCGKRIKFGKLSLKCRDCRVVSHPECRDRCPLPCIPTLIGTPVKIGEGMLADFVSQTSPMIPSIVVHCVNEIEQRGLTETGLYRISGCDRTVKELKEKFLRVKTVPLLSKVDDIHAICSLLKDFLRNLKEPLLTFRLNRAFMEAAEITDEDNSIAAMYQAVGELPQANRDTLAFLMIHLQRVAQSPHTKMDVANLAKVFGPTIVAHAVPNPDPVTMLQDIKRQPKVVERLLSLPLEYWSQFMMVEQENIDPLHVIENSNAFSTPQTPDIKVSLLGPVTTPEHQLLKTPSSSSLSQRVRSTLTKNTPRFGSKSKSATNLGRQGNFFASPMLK

[2] = target: Induced myeloid leukemia cell differentiation protein Mcl-1 (Homo sapiens, UniProt Q07820); format: functional
[3] = target: T2, Polyadenylate-binding protein 1 (Homo sapiens, UniProt P11940); assay: MLLE domain peptide-binding blockers, IC50 – biochemical, fluorescence polarization, FITC-PAM2 peptide, dose response (AID 602259); format: functional; details: read-out: IC50_Mean
[4] = target: T2, Polyadenylate-binding protein 1; assay: MLLE binding blockers, Cy5 peptide tracer – biochemical, fluorescence polarization, Cy5-PAM2 peptide, secondary, miRNA deadenylation inhibitor project, dose response (AID 602260); format: functional; details: read-out: IC50_Mean
[5] = blockers of HIV-1 ZM109 envelope-driven cell-cell fusion – HeLa effector, CEM target cells, luciferase, cherry-pick, dose response (AID 652058); format: functional, cell-based;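 also: luciferase signal from HIV-1 Env mediated cell-cell fusion of effector and target cells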
[6] = blockers of HIV-1 envelope-mediated cell-cell fusion – cherry-pick, dose response (AID 652057); format: functional, cell-based
[7] = target: T3, High affinity choline transporter 1 (Homo sapiens, UniProt Q9GZV3); assay: human choline transporter blockers, potency – cell-based, 5-point CRC, membrane potential dye, dose response (AID 504840); format: functional
T3 sequence (Q9GZV3 whole entry): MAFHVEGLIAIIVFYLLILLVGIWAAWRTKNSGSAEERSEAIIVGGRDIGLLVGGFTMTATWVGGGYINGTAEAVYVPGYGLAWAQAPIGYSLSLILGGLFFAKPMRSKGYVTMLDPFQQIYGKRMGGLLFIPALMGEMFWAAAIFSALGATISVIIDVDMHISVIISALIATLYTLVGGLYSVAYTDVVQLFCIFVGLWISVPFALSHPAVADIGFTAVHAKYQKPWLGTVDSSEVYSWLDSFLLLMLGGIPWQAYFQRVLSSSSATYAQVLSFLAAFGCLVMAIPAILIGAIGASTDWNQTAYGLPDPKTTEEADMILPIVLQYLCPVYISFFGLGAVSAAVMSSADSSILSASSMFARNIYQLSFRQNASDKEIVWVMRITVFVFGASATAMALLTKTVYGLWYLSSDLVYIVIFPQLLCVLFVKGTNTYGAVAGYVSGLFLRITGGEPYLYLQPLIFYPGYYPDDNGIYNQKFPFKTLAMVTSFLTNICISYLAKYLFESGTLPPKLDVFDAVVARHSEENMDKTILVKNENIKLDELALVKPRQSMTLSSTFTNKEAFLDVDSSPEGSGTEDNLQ

HeLa = assay: ATP-based viability loss in HeLa cells – cell-based, CellTiter-Glo luminescence, cherry-pick samples, cytotoxicity control for MITF activator project, dose response (AID 540259); format: functional; details: Homo sapiens
[8] = viability of PTEN-deleted HCT116 cells – cell-based, HCT116 PTEN knockout, dose response (AID 1047); format: functional;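 also: HCT116 colon tumor cells with PTEN knocked out; cells exposed to compound for 60 hours before readout; potency for loss of cell viability measured by luminescence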
[9] = viability of HCT116 lacking mutant beta-catenin – cell-based, human colon tumor, dose response (AID 1045); format: functional;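 also: HCT116 colon tumor cells with beta catenin knocked out; cells exposed to compound for 60 hours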
[10] = NIH-3T3 fibroblast cytotoxicity, dose response, cytotoxicity control, cell-based, fluorescence, Alamar Blue, secondary assay (AID 2327); format: functional;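 also: NIH-3T3 mouse fibroblasts cultured with fluconazole at 8 µg/mL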
[11] = fluconazole-exposed Candida albicans growth modulators – fluorescence, retest, confirmation (AID 2467); format: functional, cell-based
[12] = THP-1 cell cytotoxicity, dose response, cytotoxicity control for non-replicating M. tuberculosis project (AID 489025); format: functional
cells = format: functional
Protein skinhead-1 = target: T4, Protein skinhead-1 (Caenorhabditis elegans, UniProt P34707); format: functional
T4 sequence (P34707 whole entry): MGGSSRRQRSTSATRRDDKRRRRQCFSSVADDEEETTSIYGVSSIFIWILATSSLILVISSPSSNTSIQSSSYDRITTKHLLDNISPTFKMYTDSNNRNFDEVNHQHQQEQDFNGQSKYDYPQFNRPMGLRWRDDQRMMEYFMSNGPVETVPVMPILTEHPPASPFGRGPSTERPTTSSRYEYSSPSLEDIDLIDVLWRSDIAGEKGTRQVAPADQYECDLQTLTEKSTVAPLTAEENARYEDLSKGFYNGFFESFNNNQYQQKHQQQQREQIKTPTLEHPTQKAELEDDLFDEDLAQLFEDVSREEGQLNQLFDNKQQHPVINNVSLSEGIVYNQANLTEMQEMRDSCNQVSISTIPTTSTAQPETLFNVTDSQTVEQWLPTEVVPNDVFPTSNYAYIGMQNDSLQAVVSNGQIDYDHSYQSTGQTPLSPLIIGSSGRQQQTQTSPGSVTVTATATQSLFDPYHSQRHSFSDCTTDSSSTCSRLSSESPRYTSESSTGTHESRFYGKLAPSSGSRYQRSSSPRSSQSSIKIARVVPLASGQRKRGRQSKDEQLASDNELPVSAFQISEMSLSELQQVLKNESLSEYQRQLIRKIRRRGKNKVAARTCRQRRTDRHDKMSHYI

Aminopeptidase N = target: T5, Aminopeptidase N (Plasmodium falciparum FcB1/Columbia, UniProt O96935); assay: malaria alanyl aminopeptidase activity blockers – biochemical, fluorogenic H-Leu-NHMec substrate, 1536-well (AID 1445); parameters: species or system Plasmodium falciparum 3D7, 3D7
T5 sequence (O96935 whole entry): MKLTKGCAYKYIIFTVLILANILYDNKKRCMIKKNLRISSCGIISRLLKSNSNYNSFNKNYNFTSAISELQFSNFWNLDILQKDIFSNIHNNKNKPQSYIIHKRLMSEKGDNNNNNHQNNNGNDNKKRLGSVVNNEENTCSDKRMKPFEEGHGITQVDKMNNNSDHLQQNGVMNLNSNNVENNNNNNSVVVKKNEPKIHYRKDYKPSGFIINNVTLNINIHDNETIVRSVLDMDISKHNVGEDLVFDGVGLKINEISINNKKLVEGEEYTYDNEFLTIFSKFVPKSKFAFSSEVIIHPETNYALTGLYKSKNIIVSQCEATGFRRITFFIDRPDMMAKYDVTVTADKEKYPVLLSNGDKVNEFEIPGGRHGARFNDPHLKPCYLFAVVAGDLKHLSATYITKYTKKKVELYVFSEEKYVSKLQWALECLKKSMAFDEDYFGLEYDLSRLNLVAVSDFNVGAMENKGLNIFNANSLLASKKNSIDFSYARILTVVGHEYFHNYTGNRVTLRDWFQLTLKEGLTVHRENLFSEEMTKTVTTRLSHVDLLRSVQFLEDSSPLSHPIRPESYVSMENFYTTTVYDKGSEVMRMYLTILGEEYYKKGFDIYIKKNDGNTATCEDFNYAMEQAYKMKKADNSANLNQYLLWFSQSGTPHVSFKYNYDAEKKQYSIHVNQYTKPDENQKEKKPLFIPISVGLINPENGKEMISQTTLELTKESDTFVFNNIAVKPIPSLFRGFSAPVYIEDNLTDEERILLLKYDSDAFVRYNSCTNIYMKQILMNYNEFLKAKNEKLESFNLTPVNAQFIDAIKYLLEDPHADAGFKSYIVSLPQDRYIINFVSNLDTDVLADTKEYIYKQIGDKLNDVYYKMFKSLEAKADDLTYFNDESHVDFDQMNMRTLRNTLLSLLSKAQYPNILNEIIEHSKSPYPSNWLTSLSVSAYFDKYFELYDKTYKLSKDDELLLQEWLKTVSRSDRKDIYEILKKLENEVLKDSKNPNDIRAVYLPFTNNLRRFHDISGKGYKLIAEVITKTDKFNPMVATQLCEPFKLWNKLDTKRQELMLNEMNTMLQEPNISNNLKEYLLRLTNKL

Fatty acid synthase [13] = target: T6, Fatty acid synthase (Homo sapiens, UniProt P49327); assay: inhibition of human FAS-TE enzyme activity – biochemical, kinetic fluorescence intensity, dose response (AID 624326); format: functional;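 also: rate of fluorescence rise from hydrolysis of a fluorogenic O-methyl fluorescein ester substrate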
Fatty acid synthase [14] = target: T6, Fatty acid synthase; assay: inhibition of human FAS-TE enzyme activity – biochemical, endpoint fluorescence intensity, uHTS hits, dose response (AID 624327); format: functional;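 also: fluorescence from hydrolysis of an O-methyl fluorescein acyl ester substrate by the enzyme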
[15] = A549 cell cytotoxicity, dose response, cytotoxicity control, plate reader, cherry-pick, antagonist series (AID 743412); format: functional, cell-based

T2 sequence (P11940 whole entry, the tested form may be a part): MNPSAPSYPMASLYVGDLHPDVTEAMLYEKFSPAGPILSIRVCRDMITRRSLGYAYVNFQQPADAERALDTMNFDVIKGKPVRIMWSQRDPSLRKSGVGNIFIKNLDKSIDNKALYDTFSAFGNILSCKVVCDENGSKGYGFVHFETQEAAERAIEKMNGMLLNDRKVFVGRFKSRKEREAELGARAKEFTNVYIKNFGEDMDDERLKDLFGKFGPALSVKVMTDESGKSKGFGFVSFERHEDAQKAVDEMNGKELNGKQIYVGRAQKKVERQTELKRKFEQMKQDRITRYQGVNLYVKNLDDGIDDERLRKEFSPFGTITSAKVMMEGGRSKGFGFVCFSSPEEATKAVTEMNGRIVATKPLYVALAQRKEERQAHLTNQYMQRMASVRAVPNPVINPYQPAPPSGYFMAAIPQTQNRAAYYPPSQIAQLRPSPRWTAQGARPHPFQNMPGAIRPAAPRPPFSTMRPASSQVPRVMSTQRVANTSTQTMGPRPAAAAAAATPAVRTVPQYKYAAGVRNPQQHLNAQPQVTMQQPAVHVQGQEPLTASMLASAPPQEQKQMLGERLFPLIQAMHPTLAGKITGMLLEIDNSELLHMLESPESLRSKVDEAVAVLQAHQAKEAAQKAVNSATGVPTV
Chain of Induced myeloid leukemia cell differentiation protein Mcl-1 (Q07820 whole entry, the tested form may be a part): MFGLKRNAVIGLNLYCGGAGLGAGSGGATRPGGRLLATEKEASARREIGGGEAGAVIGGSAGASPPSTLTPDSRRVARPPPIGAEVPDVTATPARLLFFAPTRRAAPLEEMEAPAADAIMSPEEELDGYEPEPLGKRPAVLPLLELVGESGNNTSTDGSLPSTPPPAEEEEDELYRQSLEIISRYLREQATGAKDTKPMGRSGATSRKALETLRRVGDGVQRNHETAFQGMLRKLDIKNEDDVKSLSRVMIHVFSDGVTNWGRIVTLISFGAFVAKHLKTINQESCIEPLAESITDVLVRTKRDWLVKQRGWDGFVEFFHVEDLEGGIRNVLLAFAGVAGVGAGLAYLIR
T6 sequence (P49327 whole entry): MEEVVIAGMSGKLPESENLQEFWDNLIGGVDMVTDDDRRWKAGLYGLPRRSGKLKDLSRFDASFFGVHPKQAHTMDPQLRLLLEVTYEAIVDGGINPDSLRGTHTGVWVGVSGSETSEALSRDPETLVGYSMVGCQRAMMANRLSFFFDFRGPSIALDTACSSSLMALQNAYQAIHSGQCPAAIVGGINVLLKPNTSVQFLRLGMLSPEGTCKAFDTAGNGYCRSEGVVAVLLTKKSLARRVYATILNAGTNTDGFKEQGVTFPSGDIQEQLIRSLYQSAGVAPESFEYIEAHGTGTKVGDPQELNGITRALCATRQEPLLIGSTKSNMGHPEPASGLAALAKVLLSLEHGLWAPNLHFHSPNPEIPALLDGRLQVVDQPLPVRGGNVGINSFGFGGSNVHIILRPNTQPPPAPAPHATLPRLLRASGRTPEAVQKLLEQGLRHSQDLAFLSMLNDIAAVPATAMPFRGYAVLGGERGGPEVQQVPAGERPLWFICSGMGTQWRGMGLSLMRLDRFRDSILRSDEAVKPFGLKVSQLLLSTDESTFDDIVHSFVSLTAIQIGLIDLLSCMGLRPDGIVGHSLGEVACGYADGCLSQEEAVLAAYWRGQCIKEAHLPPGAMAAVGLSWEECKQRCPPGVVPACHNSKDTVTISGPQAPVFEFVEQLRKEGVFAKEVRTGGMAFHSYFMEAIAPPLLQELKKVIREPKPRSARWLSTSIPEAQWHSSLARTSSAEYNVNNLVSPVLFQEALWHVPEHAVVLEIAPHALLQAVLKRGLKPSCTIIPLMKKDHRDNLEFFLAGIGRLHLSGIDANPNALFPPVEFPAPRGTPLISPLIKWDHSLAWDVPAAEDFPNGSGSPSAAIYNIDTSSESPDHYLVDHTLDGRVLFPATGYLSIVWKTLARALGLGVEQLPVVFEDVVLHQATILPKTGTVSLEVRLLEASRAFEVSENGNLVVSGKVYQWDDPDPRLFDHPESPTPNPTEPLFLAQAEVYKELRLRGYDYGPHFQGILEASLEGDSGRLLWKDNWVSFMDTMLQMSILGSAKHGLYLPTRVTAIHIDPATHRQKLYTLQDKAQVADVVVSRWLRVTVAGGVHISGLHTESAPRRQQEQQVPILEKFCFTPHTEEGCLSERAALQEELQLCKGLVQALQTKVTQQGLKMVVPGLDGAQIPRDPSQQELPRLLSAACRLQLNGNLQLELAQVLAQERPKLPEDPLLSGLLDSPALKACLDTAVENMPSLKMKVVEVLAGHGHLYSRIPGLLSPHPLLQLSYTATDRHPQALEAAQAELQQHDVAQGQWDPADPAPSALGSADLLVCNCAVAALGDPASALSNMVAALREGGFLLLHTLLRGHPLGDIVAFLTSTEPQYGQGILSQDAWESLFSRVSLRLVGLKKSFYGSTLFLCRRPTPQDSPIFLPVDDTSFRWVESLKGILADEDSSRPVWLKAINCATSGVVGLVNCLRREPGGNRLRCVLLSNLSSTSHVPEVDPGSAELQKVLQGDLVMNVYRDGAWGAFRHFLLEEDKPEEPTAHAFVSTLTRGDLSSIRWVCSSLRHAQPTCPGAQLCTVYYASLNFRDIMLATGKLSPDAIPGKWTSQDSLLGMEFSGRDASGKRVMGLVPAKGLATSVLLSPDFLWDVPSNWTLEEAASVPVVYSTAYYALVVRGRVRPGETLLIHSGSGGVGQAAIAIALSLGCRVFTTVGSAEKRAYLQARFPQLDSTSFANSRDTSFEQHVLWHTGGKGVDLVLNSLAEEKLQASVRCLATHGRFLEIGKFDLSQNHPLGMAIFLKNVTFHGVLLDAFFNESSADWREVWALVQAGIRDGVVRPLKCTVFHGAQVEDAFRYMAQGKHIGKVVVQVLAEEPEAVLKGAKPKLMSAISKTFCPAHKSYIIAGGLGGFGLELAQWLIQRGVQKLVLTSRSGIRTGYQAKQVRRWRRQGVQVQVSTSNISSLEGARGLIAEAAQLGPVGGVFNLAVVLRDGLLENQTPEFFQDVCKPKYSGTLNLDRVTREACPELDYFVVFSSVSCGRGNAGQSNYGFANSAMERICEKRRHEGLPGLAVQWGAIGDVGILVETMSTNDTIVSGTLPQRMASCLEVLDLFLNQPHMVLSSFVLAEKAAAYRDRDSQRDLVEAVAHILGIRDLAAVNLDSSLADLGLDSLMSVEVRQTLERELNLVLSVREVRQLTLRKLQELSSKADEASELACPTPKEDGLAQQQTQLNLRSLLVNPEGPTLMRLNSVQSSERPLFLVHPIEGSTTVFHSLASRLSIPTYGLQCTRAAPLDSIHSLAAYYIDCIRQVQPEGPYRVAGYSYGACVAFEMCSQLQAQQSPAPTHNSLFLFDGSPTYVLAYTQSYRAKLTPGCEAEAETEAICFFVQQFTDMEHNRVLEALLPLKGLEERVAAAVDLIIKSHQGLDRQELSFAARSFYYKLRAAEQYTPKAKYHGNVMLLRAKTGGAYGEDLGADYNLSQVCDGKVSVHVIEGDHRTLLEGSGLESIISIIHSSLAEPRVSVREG

SMILES: CCc1nc(Nc2ccc(N3CCN(C(C)=O)CC3)cc2)c2oc3ccccc3c2n1
- IC50 [1]: 36.8 µM (active)
- IC50 [2]: 5.67 µM (not active)

SMILES: COCC(C)n1c(SCC(=O)Nc2nccs2)nc2ccccc2c1=O (configuration not stated)
- IC50 [3]: > 66 µM (inactive)
- IC50 [4]: > 66 µM (inactive)

SMILES: O=C(NCc1ccccc1)[C@@H]1CCCN1C(=O)[C@@H]1CCCN1C(=O)c1cccc2ccccc12
- AC50 [5]: 36 µM (active)
- AC50 [6]: 54.2 µM (active)

SMILES: O=C(CSc1n[nH]c(-c2ccccc2)n1)Nc1ncc(Br)cc1Br
- IC50 [7]: 14.5 µM (active)

SMILES: COC(=O)[C@@]1(C)[C@H]2C(=O)N(Cc3ccccc3)C(=O)[C@H]2[C@H]2CN=C(SCC(=O)c3ccccc3)N21
- IC50 [3]: > 66 µM (inactive)
- IC50 [4]: > 66 µM (inactive)

SMILES: COC(=O)C(C)N1C(=O)S/C(=C/c2cc(C)n(C(C)C)c2C)C1=O (configuration not stated)
- AC50 (HeLa): 52.9 µM (active)

SMILES: CN1CCC(N(C)c2nc(-c3ccc([N+](=O)[O-])cc3)nc3ccccc23)CC1
- IC50 [2]: 3.99 µM (active)
- EC50 [8]: 5.17 µM (active)
- EC50 [9]: 4.29 µM (active)

SMILES: CSC(=Nc1ccc(Cl)cc1)NS(=O)(=O)c1cccs1
- EC50 [10]: > 150 µM (inactive)
- EC50 [11]: 1.15 µM (active)

SMILES: COc1ccccc1C(=O)/C=C/c1ccc(N2CCCCC2)c([N+](=O)[O-])c1
- EC50 [8]: 5.52 µM (active)
- EC50 [9]: 4.48 µM (active)

SMILES: CN(C(=S)NC(=O)c1ccccc1)c1c(N)n(Cc2ccccc2)c(=O)[nH]c1=O
- IC50 [3]: > 66 µM (inactive)
- IC50 [4]: > 66 µM (inactive)

SMILES: CC1=C(C(=O)Nc2cccc(C(=O)NC3CCCCC3C)c2)SCCO1 (configuration not stated)
- IC50 [7]: 13.2 µM (active)

SMILES: CCOc1ccccc1C(=O)N1CCN=C1SCc1cccnc1
- IC50 [3]: > 66 µM (inactive)
- IC50 [4]: > 66 µM (inactive)

SMILES: Cc1cc(OC(C)C(=O)Nc2ccc(S(=O)(=O)Nc3onc(C)c3C)cc2)cc(C)c1Cl (configuration not stated)
- IC50 [7]: 3.98 µM (active)

SMILES: COc1ccc(C(C(=O)NC2CCCCC2)N(CC2CCCO2)C(=O)C2COc3ccccc3O2)cc1OC (configuration not stated)
- EC50 [8]: 12.7 µM (active)
- EC50 [9]: 19.5 µM (active)

SMILES: Nc1ccc2nc3c(c(Cl)c2c1)CCCC3
- CC50 [12]: 2.79 µM (active)
- IC50 (cells): 13.7 µM (active)

SMILES: COc1ccc(-c2ccc3ccccc3n2)cc1OC
- AC50 (HeLa): 46.8 µM (active)

SMILES: Cc1cccc(C)c1OCc1cc(C(=O)N2CCN(C3CCCC3)CC2)no1
- IC50 [7]: 19.1 µM (active)
- IC50 (Protein skinhead-1): > 100 µM (inactive)

SMILES: CSc1ccccc1NC(=O)Nc1ccc(Cl)cc1
- EC50 [8]: 68.5 µM (active)
- EC50 [9]: 46.5 µM (active)

SMILES: O=C(Cc1ccc(F)cc1)N/N=C/c1ccc(-c2ccc(Cl)c(C(=O)O)c2)o1
- IC50 (Aminopeptidase N): 22.9 µM (active)

SMILES: C[C@@H]1CN([C@H](C)CO)C(=O)c2cc(NC(=O)Nc3ccc(F)cc3)ccc2O[C@@H](C)CCCCO[C@H]1CN(C)S(=O)(=O)c1cccs1
- IC50 (Fatty acid synthase [13]): 3.69 µM (active)
- IC50 (Fatty acid synthase [14]): 5.17 µM (active)

SMILES: COC(=O)CN1C(=O)C2(C(C#N)=C(N)Oc3[nH]nc(-c4cccs4)c32)c2ccccc21 (configuration not stated)
- IC50 (Aminopeptidase N): 36.7 µM (active)

SMILES: CC(C)OCCCNC(=O)c1sc(=S)n(C)c1N
- IC50 [3]: > 66 µM (inactive)
- IC50 [4]: > 66 µM (inactive)

SMILES: Cc1ccc(S(=O)(=O)N(C)C[C@H]2Oc3cc(Br)ccc3S(=O)(=O)N([C@H](C)CO)C[C@H]2C)cc1
- AC50 [15]: 33.6 µM (active)

SMILES: C/C(=N\N=C(N)N)c1ccc(Cl)cc1Cl
- IC50 [7]: 14.8 µM (active)

SMILES: c1ccc2sc(SCc3ccc(-c4nnco4)cc3)nc2c1
- CC50 [12]: > 40 µM (active)
- IC50 (cells): 27.4 µM (active)
- IC50 (Protein skinhead-1): 32.7 µM (active)

SMILES: COC(=O)c1ccc(Oc2nc(C(N)=O)cc(-c3ccccc3)n2)cc1
- EC50 [8]: 29.9 µM (active)

SMILES: CC1CCCCC1NC(=O)CN1C(=O)c2cccc(N)c2C1=O (configuration not stated)
- IC50 [3]: 35.5 µM (inactive)
- IC50 [4]: > 66 µM (inactive)

SMILES: COc1ccc(-c2nn(CCC(=O)O)cc2/C=C2\SC(N)=NC2=O)cc1OC
- IC50 [2]: 4.63 µM (active)
